From patent US20240383911A1, “AZAINDAZOLE MACROCYCLE COMPOUNDS AND USES THEREOF” (BROADENBIO CO., LTD, priority 2021, published 2024)

Columns and labels:
Human Jurkat-E6-1 cells = test: Detection of IL-2 production by Jurkat cells using ELISA; format: cell-based; conditions: anti-CD3/anti-CD28 stimulation 24 hours, read-out: Percentage of the amount of IL-2 secreted by compound treated vs DMSO-treated cells; for activity at 0.33 µM: tested compound 0.33 μM; for activity at 1 µM: tested compound 1.0 μM
Experimental: (§1) Tested compounds: compounds prepared in the Examples of this invention.
Human Jurkat-E6-1 cells were incubated with various concentrations of tested compounds for 30 minutes in a humidified incubator at 37° C. and 5% CO2. Cells were transferred to cell culture plates pre-coated with anti-human CD3 antibody, then soluble anti-human CD28 antibody was added, and cells were stimulated for 24 hours at 37° C. and 5% CO2 in a humidified incubator. The cell culture medium was collected after centrifugation, and was then transferred to a 96-well transparent microtiter plate (Thermo) pre-coated with anti-human IL-2 antibody, incubated at room temperature for 2 hours with gently shaking, washed with washing buffer for 4 times, and then followed the ELISA MAX Deluxe Set Human IL-2 (BioLegend) kit procedures, used a microplate reader (Molecular Device, i3X) to read the GD value at 450 nm. The best standard curve was selected by the microplate reader application software, and the corresponding concentration was calculated according to the GD value of the standard. Results are expressed as a percentage (%) of the amount of IL-2 secreted by compound-treated vs DMSO-treated cells.

HPK1 = HPK1 (Homo sapiens, UniProt Q92918); test: HPK1 kinase activity inhibition test (ADP-Glo, luminescence); format: biochemical; conditions: 2 μM ATP, 5 nM HPK1, read-out: IC50, inhibitory effects on HPK1 kinase activity
HPK1, sequence (Q92918 whole entry): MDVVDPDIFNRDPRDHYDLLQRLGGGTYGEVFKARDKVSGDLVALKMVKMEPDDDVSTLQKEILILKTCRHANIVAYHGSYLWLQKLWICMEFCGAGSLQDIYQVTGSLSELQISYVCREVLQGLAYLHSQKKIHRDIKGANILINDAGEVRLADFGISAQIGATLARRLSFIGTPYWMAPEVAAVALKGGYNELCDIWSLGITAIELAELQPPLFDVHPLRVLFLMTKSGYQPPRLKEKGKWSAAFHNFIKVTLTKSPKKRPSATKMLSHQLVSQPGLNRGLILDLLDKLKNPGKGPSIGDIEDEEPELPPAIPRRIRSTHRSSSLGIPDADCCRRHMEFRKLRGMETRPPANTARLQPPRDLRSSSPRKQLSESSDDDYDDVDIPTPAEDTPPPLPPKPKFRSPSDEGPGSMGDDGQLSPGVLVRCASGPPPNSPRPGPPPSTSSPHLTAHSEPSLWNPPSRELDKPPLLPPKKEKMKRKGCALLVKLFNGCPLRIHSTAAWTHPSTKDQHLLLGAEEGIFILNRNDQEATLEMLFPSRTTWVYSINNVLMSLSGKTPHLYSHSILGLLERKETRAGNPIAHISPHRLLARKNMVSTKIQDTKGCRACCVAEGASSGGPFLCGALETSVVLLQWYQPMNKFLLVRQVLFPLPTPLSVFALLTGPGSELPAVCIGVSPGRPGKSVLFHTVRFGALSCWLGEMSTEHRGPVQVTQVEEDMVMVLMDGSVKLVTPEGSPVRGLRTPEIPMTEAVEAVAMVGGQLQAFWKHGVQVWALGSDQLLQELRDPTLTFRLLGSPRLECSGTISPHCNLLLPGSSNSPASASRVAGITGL
Experimental: The kinase activity of HPK1 is manifested as activity of autophosphorylation and phosphorylation of downstream substrates. In the process of autophosphorylation, additional substrates are not required, and ATP is consumed to generate ADP. The amount of the product is measured by ADP-Glo reagent and luminescence method to reflect kinase activity.
as §1
Preparation of compound stock solution: dissolve the test compound in 100% DMSO to make a 10 mM stock solution;
Preparation of 4×Kinase Reaction Buffer:
Preparation of 2×HPK1 Kinase Solution:
Preparation of 4×ATP Mixture:
Dilute the stock solution of the test compound by 5 times with 100% DMSO, make a 4-fold equal dilution in a 96-well dilution plate, add 1 μL of the compound to 49 μL of kinase reaction buffer, and shake on a microplate shaker for 20 minutes. Transfer 2 μL of 2×HPK1 kinase solution to 384 reaction plate, add 1 μL of the test compound to the 384 reaction plate (Greiner, Cat #784075), centrifuge for 1 minute (1000 rpm/min), incubate at 25° C. for 10 minutes. Transfer 1 μL of the 4×ATP mixture to a 384 reaction plate, centrifuge for 1 minute (1000 rpm/min), and incubate at 25° C. for 60 minutes. In the reaction system, the final concentration of DMSO is 0.5%. Transfer 4 μL of ADP-Glo to a 384 reaction plate, centrifuge for 1 minute (1000 rpm/min), and incubate at 25° C. for 40 minutes. Transfer 8 μL detection solution to a 384 reaction plate, centrifuge for 1 minute (1000 rpm/min), and incubate at 25° C. for 40 minutes. The […] is read using a Biotek multi-function plate reader, and the IC50 (half inhibitory concentration) of the compound is obtained using a four-coefficient nonlinear fitting formula.

Fc1cccc2c1-c1cc3c(n[nH]c3cn1)-c1ccc(N3CCC(N4CCOCC4)CC3)c(c1)OCCCOC2 [Compound 105, 17-fluoro-5-[4-(morpholin-4-yl)piperidin-1-yl]-7,11-dioxa-20,23,24-triazapentacyclo[17.5.2.1^2,6.0^13,18.0^22,25]heptacosa-1(24),2,4,6(27),13(18),14,16,19,21,25-decaene]
activity at 0.33 µM (Human Jurkat-E6-1 cells): 313% | IC50 (HPK1): ≤ 5 nM

OC1CCN(c2ccc3cc2OCCCOc2cccc(F)c2-c2cc4c-3n[nH]c4cn2)CC1 [Compound 106, 16-fluoro-5-(4-hydroxypiperidin-1-yl)-7,11-dioxa-19,22,23-triazapentacyclo[16.5.2.1^2,6.0^12,17.0^21,24]hexacosa-1(23),2,4,6(26),12(17),13,15,18,20,24-decaene]
activity at 1 µM (Human Jurkat-E6-1 cells): 504% | IC50 (HPK1): 5 to 50 nM

OC1CCN(c2ccc3cc2OCCCOCc2cccc(F)c2-c2cc4c-3n[nH]c4cn2)CC1 [Compound 107, 17-fluoro-5-(4-hydroxypiperidin-1-yl)-7,11-dioxa-20,23,24-triazapentacyclo[17.5.2.1^2,6.0^13,18.0^22,25]heptacosa-1(24),2,4,6(27),13(18),14,16,19,21,25-decaene]
activity at 1 µM (Human Jurkat-E6-1 cells): 345% | IC50 (HPK1): ≤ 5 nM

CN1CCN(C2CCN(c3ccc4cc3OCCCOc3cccc(F)c3-c3cc5c-4n[nH]c5cn3)CC2)CC1 [Compound 108, 16-fluoro-5-[4-(4-methylpiperazin-1-yl)piperidin-1-yl]-7,11-dioxa-19,22,23-triazapentacyclo[16.5.2.1^2,6.0^12,17.0^21,24]hexacosa-1(23),2,4,6(26),12(17),13,15,18,20,24-decaene]
activity at 0.33 µM (Human Jurkat-E6-1 cells): 213% | IC50 (HPK1): ≤ 5 nM

CN1CCN(C2CCN(c3ccc4cc3OCCCOCc3cccc(F)c3-c3cc5c-4n[nH]c5cn3)CC2)CC1 [Compound 109, 17-fluoro-5-[4-(4-methylpiperazin-1-yl)piperidin-1-yl]-7,11-dioxa-20,23,24-triazapentacyclo[17.5.2.1^2,6.0^13,18.0^22,25]heptacosa-1(24),2,4,6(27),13(18),14,16,19,21,25-decaene]
activity at 1 µM (Human Jurkat-E6-1 cells): 264% | IC50 (HPK1): ≤ 5 nM

CN(C)C1(C)CCN(c2ccc3cc2OCCCOc2cccc(F)c2-c2cc4c-3n[nH]c4cn2)CC1 [Compound 110, 1-{16-fluoro-7,11-dioxa-19,22,23-triazapentacyclo[16.5.2.1^2,6.0^12,17.0^21,24]hexacosa-1(23),2,4,6(26),12(17),13,15,18,20,24-decaen-5-yl}-N,N,4-trimethylpiperidin-4-amine]
activity at 0.33 µM (Human Jurkat-E6-1 cells): 222% | IC50 (HPK1): ≤ 5 nM

CN(C)C1(C)CCN(c2ccc3cc2OCCCOCc2cccc(F)c2-c2cc4c-3n[nH]c4cn2)CC1 [Compound 111, 1-{17-fluoro-7,11-dioxa-20,23,24-triazapentacyclo[17.5.2.1^2,6.0^13,18.0^22,25]heptacosa-1(24),2,4,6(27),13(18),14,16,19,21,25-decaen-5-yl}-N,N,4-trimethylpiperidin-4-amine]
activity at 0.33 µM (Human Jurkat-E6-1 cells): 388% | IC50 (HPK1): ≤ 5 nM

OC1CCN(C2CCN(c3ccc4cc3OCCCOCc3cccc(F)c3-c3cc5c-4n[nH]c5cn3)CC2)CC1 [Compound 112, 1′-{17-fluoro-7,11-dioxa-20,23,24-triazapentacyclo[17.5.2.1^2,6.0^13,18.0^22,25]heptacosa-1(24),2,4,6(27),13(18),14,16,19,21,25-decaen-5-yl}-[1,4'-bipiperidin]-4-ol]
activity at 1 µM (Human Jurkat-E6-1 cells): 245% | IC50 (HPK1): ≤ 5 nM

OC1(CN2CCOCC2)CCN(c2ccc3cc2OCCCOc2cccc(F)c2-c2cc4c-3n[nH]c4cn2)CC1 [Compound 113, 1-{16-fluoro-7,11-dioxa-19,22,23-triazapentacyclo[16.5.2.1^2,6.0^12,17.0^21,24]hexacosa-1(23),2,4,6(26),12(17),13,15,18,20,24-decaen-5-yl}-4-[(morpholin-4-yl)methyl]piperidin-4-ol]
activity at 0.33 µM (Human Jurkat-E6-1 cells): 265% | IC50 (HPK1): 5 to 50 nM

CN1CCN(c2ccc3cc2OCC(O)COc2cccc(F)c2-c2cc4c-3n[nH]c4cn2)CC1 (stereo not drawn) [Compound 114, 16-fluoro-5-(4-methylpiperazin-1-yl)-7,11-dioxa-19,22,23-triazapentacyclo[16.5.2.1^2,6.0^12,17.0^21,24]hexacosa-1(23),2,4,6(26),12(17),13,15,18,20,24-decaen-9-ol]
activity at 0.33 µM (Human Jurkat-E6-1 cells): 239% | IC50 (HPK1): ≤ 5 nM

CN1CCN(c2ccc3cc2OCCCOCc2cccc(F)c2-c2ncc4[nH]nc-3c4n2)CC1 [Compound 115, 17-fluoro-5-(4-methylpiperazin-1-yl)-7,11-dioxa-20,23,24,26-tetraazapentacyclo[17.5.2.1^2,6.0^13,18.0^22,25]heptacosa-1(24),2,4,6(27),13(18),14,16,19,21,25-decaene]
activity at 1 µM (Human Jurkat-E6-1 cells): 263% | IC50 (HPK1): 5 to 50 nM

CN1C2CC1CN(c1ccc3cc1OCCCOCc1cccc(F)c1-c1cc4c-3n[nH]c4cn1)C2 [Compound 116, 17-fluoro-5-{6-methyl-3,6-diazabicyclo[3.1.1]heptan-3-yl}-7,11-dioxa-20,23,24-triazapentacyclo[17.5.2.1^2,6.0^13,18.0^22,25]heptacosa-1(24),2,4,6(27),13(18),14,16,19,21,25-decaene]
activity at 0.33 µM (Human Jurkat-E6-1 cells): 450% | IC50 (HPK1): ≤ 5 nM

CN1C2CC1CN(c1ccc3cc1OCCCOc1cccc(F)c1-c1cc4c-3n[nH]c4cn1)C2 [Compound 117, 16-fluoro-5-{6-methyl-3,6-diazabicyclo[3.1.1]heptan-3-yl}-7,11-dioxa-19,22,23-triazapentacyclo[16.5.2.1^2,6.0^12,17.0^21,24]hexacosa-1(23),2,4,6(26),12(17),13,15,18,20,24-decaene]
activity at 1 µM (Human Jurkat-E6-1 cells): 525% | IC50 (HPK1): ≤ 5 nM

O[C@@H]1COc2cc(ccc2N2CCN3CCOC[C@H]3C2)-c2n[nH]c3cnc(cc23)-c2c(F)cccc2OC1 [Compound 120, (9S)-5-[(9aR)-octahydropyrazino[2,1-c][1,4]oxazin-8-yl]-16-fluoro-7,11-dioxa-19,22,23-triazapentacyclo[16.5.2.1^2,6.0^12,17.0^21,24]hexacosa-1(23),2,4,6(26),12(17),13,15,18,20,24-decaen-9-ol]
activity at 1 µM (Human Jurkat-E6-1 cells): 494% | IC50 (HPK1): ≤ 5 nM

CN1CCN(c2ccc3cc2OCCCOCc2cccc(F)c2-c2cc4c-3n[nH]c4cn2)C[C@@H]1CO [Compound 121, [(2R)-4-{17-fluoro-7,11-dioxa-20,23,24-triazapentacyclo[17.5.2.1^2,6.0^13,18.0^22,25]heptacosa-1(24),2,4,6(27),13(18),14,16,19,21,25-decaen-5-yl}-1-methylpiperazin-2-yl]methanol]
activity at 0.33 µM (Human Jurkat-E6-1 cells): 467% | IC50 (HPK1): ≤ 5 nM

O=C1OC[C@H]2CN(c3ccc4cc3OCCCOCc3cccc(F)c3-c3cc5c-4n[nH]c5cn3)CCN12 [Compound 123, (8aR)-7-{17-fluoro-7,11-dioxa-20,23,24-triazapentacyclo[17.5.2.1^2,6.0^13,18.0^22,25]heptacosa-1(24),2,4,6(27),13(18),14,16,19,21,25-decaen-5-yl}-hexahydro-1H-[1,3]oxazolo[3,4-a]pyrazin-3-one]
activity at 1 µM (Human Jurkat-E6-1 cells): 440% | IC50 (HPK1): ≤ 5 nM

O=C1OC[C@@H]2CN(c3ccc4cc3OCCCOCc3cccc(F)c3-c3cc5c-4n[nH]c5cn3)CCN12 [Compound 124, (8aS)-7-{17-fluoro-7,11-dioxa-20,23,24-triazapentacyclo[17.5.2.1^2,6.0^13,18.0^22,25]heptacosa-1(24),2,4,6(27),13(18),14,16,19,21,25-decaen-5-yl}-hexahydro-1H-[1,3]oxazolo[3,4-a]pyrazin-3-one]
activity at 1 µM (Human Jurkat-E6-1 cells): 630% | IC50 (HPK1): ≤ 5 nM

CN1C[C@H]2CN(c3ccc4cc3OCCCOCc3cccc(F)c3-c3cc5c-4n[nH]c5cn3)CCN2CC1=O [Compound 127, (9aR)-8-{17-fluoro-7,11-dioxa-20,23,24-triazapentacyclo[17.5.2.1^2,6.0^13,18.0^22,25]heptacosa-1(24),2,4,6(27),13(18),14,16,19,21,25-decaen-5-yl}-2-methyl-octahydro-1H-[1,4]diazino[1,2-a]pyrazin-3-one]
activity at 0.33 µM (Human Jurkat-E6-1 cells): 475% | IC50 (HPK1): ≤ 5 nM
